# Data as given in patent publication US20260116867A1, “PROTEOLYSIS TARGETING CHIMERAS FOR HUMAN PREGNANE X RECEPTOR AND FOR DEGRADATION OF GSPT1” (ST. JUDE CHILDREN'S RESEARCH HOSPITAL, priority 2022, published 2026).
# “Also recorded” adds a separate entry of the source.
# How the values were obtained:
# [1] = test system: SNU—C4 3xFLAG-PXR KI cell lines stably expressing HA-tagged GSPT1^G575N; experiment: Cytotoxicity assay in cells overexpressing degradation-resistant GSPT1 mutant; format: cell-based, human; settings: FIG. 7B-C
# Description: Complete information for all plasmids is included in Table 1 below. […] Lentiviruses for pCDH-GSPT1 or pCDH-GSPT1^G575N were generated in 293T cells using psPAX2 and pMD2.G packaging vectors. The packaging vectors were gifts from Dr. Didier Trono (Addgene plasmid #12259 and 12260).
# (§1) The indicated cells (2.5×10^3/well in 40 μL RPMI with 10% FBS) were plated in the 384-well plates, resulting in 0.5% DMSO and the indicated concentrations of chemicals. After 72 h compound treatment, the CellTiter-Glo Luminescent Cell Viability Assay (Promega) and an EnVision microplate reader were used to assess cytotoxicity. Wells containing DMSO alone or 10 μM staurosporine served as negative and positive controls, respectively. The percent cell viability for each well was calculated using equation 1: […]
# [2] = test system: SNU—C4 3xFLAG-PXR KI cells; experiment: Cytotoxicity assay (CellTiter-Glo, 72 h); format: cell-based, human; settings: SNU—C4 3xFLAG-PXR KI cells
# Description: as §1
# [3] = Cytotoxicity assay (CellTiter-Glo, 72 h); format: cell-based, human; settings: human, SNU-C4 3xFLAG-PXR KI cells; read-out: half maximal cytotoxic concentration (CC50)
# Description: as §1
# GSPT1 = target: T1, GSPT1 (Homo sapiens, UniProt P15170+Q96SW2); experiment: Western blot of GSPT1 protein in SNU—C4 3xFLAG-PXR KI cells; format: cell-based
# T1 construct: endogenous in cells
# Description: The following day, DMSO or compounds were added to result in 0.5% DMSO and the indicated compound concentrations, and cells were incubated for the indicated time points. Cells were lysed and subjected to western blotting as above using antibodies against FLAG (Sigma-Aldrich, cat. #F3165, 1:2,000 dilution), GSPT1 (Abcam, cat. #ab126090, 1:4,000 dilution), and R-Actin (Cell Signaling Technology, cat. #4967, 1:2,000 dilution).
# HiBiT-FKBP12^F36V-PXR = target: T2, HiBiT-FKBP12^F36V-PXR (Homo sapiens, UniProt O75469+P62942, F37V); experiment: HiBiT assay for degradation of overexpressed protein in HepG2 cells; format: cell-based; settings: HepG2, HiBiT-FKBP12^F36V-PXR, 24 h, FIG. 4A
# T2 construct: expressed in transfected cells; host or cells: HepG2 cells (transient, Lipofectamine 3000)
# Description: HepG2 cells (5×10^6 cells/dish) were plated in tissue culture-treated 10 cm dishes in 10 mL EMEM with 10% FBS. The next day, cells were transfected with 5 μg pcDNA3-HiBiT-FKBP^F36V-2xHA-PXR and either 5 μg pcDNA3 vector or 5 μg pcDNA3-HA-CRBN using Lipofectamine 3000 (Thermo Fisher Scientific). After 24 h, cells were trypsinized, resuspended in assay media, and plated in white tissue culture-treated 384-well plates (1.5×10^4 cells/well in 25 μL medium). […] The plates were incubated for 24 h, and the Nano-Glo HiBiT Lytic Detection System (Promega) and an EnVision microplate reader were used to measure HiBiT signal. Results are reported as fold change relative to DMSO control cells.
# To establish a method for discovery of PXR degraders in the absence of a known PXR-degrading control, the degradation tag (dTAG) system was used. With this method, a protein of interest (PXR) is fused to a cytosolic prolyl isomerase, FKBP12, with Phe36 mutated to Val (FKBP12^F36V) (FIG. 2A). A PROTAC molecule, dTAG-13 (FIG. 2B), is then used to induce degradation of the fusion protein through recruitment of the CUL4-RBX1-DDB1-CRBN (CRL4^CRBN) E3 ubiquitin ligase, without affecting the cellular FKBP12 protein. An HA tag was added for western blot detection, and a HiBiT tag was fused to the N-terminus to allow high-throughput plate-based quantification of HiBiT-FKBP12^F36V-PXR protein levels (FIG. 2A). […] This was also observed when the HA tag was detected by western blot (FIG. 2D). The HiBiT detection was more sensitive to protein level changes than western blot, and, importantly, overexpression of CRBN was required to achieve dTAG-13-mediated degradation of the overexpressed HiBiT-FKBP12^F36V-PXR protein.
# T1 sequence (P15170 1-637 isoform P15170-3): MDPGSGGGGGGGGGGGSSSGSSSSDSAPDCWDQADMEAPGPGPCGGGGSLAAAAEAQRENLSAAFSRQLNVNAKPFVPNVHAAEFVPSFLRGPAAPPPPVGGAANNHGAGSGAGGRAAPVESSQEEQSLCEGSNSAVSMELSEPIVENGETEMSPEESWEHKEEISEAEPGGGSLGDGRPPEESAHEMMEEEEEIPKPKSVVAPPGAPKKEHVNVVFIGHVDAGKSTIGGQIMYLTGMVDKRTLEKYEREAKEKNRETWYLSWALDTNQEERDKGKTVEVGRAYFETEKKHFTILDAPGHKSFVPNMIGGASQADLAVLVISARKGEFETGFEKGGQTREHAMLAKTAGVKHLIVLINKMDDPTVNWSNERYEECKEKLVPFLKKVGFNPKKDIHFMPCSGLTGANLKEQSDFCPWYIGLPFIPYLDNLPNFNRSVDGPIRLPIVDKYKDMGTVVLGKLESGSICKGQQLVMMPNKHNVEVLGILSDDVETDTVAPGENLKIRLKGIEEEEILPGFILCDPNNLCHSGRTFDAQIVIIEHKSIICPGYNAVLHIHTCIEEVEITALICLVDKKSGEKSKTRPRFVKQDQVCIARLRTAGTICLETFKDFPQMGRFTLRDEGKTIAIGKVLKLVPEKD
# T1 sequence (Q96SW2 whole entry): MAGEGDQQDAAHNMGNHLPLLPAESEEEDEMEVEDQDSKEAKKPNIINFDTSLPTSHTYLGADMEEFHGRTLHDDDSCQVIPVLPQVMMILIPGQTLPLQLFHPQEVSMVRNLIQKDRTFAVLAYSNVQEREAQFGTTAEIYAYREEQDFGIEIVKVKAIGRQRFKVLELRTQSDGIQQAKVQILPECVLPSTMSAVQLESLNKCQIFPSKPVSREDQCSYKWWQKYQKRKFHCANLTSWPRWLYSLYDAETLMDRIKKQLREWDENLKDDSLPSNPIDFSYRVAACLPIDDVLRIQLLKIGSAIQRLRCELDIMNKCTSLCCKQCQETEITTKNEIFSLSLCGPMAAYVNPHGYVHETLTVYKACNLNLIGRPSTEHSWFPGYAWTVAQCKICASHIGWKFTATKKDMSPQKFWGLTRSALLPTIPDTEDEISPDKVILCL
# T1 sequence (Q16531 whole entry partner): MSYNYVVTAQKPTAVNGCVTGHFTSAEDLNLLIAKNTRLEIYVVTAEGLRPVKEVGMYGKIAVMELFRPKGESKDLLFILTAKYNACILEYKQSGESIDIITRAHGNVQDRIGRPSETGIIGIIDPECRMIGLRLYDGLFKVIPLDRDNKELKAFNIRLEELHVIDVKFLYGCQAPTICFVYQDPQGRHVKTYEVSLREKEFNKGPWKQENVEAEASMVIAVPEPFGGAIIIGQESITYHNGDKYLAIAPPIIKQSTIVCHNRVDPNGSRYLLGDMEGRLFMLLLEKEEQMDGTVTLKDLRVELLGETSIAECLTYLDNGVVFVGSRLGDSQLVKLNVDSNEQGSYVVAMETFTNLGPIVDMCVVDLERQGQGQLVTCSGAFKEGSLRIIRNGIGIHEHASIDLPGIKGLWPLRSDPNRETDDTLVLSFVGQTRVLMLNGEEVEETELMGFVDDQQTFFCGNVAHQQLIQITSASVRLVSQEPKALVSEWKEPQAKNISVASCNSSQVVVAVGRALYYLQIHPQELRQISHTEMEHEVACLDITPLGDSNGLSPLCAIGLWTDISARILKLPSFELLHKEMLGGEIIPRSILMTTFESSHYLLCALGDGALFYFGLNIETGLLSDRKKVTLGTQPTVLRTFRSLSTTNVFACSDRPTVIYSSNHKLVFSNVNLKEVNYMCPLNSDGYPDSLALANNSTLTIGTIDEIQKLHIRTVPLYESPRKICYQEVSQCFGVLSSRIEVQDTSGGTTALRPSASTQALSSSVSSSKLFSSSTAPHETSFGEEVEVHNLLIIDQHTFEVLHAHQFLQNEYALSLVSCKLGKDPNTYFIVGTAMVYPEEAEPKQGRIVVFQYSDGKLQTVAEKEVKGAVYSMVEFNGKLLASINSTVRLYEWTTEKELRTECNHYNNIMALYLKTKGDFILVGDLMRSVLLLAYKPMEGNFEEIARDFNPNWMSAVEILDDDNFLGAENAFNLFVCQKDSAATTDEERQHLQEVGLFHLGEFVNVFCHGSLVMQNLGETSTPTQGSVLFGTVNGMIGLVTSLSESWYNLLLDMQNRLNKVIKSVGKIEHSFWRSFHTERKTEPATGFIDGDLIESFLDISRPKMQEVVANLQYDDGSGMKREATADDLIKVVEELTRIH
# T2 sequence (P62942+O75469 fused P62942:F37V): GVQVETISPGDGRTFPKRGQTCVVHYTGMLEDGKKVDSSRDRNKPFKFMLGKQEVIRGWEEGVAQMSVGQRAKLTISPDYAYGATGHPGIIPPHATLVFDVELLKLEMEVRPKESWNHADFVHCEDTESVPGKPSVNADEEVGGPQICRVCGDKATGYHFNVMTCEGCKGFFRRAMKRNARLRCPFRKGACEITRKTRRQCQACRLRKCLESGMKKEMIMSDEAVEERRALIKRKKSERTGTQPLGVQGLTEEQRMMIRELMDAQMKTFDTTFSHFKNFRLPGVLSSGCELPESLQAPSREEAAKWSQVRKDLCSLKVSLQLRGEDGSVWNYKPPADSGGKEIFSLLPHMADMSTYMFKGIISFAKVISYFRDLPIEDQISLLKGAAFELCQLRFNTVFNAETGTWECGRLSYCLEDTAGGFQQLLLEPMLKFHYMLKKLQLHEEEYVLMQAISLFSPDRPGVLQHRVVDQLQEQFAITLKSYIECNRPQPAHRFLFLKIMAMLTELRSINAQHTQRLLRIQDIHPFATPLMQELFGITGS
# T2 sequence (Q96SW2 whole entry partner): as the sequence (Q96SW2 whole entry) above
structure (smiles),measurement,setting,value
"COc1ccc(OC)c(-n2nnc(C(=O)Nc3cc(Oc4cccc5c4C(=O)N(C4CCC(=O)NC4=O)C5=O)cc(C(C)(C)C)c3)c2C)c1 (stereo not shown) [Compound M4, N-(3-(tert-butyl)-5-((2-(2,6-dioxopiperidin-3-yl)-1,3-dioxoisoindolin-4-yl)oxy)phenyl)-1-(2,5-dimethoxyphenyl)-5-methyl-1H-1,2,3-triazole-4-carboxamide]",cytotoxicity in cells overexpressing GSPT1^G575N,[1],partially resistant
same,fold difference in CC50 values (CC-885 vs SJPYT-195),[2],133 fold
same,CC50 at 72 h,[3],440 ± 80 nM
same,GSPT1 Loss at 10 μM (% ± SD),"GSPT1; 10 μM compound, calculated from western blots FIG. 9A",100 ± 0.1%
same,"activity on GSPT1, fold lower than that of CC-885","GSPT1; western blot, FIG. 6D-E",~100 fold
same,GSPT1 degradation (in words),"GSPT1; western blot, SNU—C4 3xFLAG-PXR KI cells, listed as SJPYT-195",deplete GSPT1 at concentrations much lower than those required to reduce PXR; also recorded: most potent inducer of GSPT1 degradation
same,HiBiT signal (screen of PXR ligand-CRBN ligand compounds),HiBiT-FKBP12^F36V-PXR,reduced HiBiT signal
